{"source": "patent US20190231757A1", "about": "“COMBINATION OF SPLEEN TYROSINE KINASE INHIBITORS AND OTHER THERAPEUTIC AGENTS” (Takeda Pharmaceutical Company Limited, priority 2016, published 2019)", "key": {"[1]": {"test_system": "A20 mouse syngeneic B-cell lymphoma", "experiment": "Antitumor activity in Balb/c mice bearing A20 syngeneic B-cell lymphoma (Example 1)", "type": "in vivo"}, "[2]": {"experiment": "Body weight and tolerability, TMD8 gemcitabine study (Example 8)", "type": "in vivo, mouse", "conditions": "alone or combined", "experimental": "(§1) Experimental design: Female CB17 SCID mice (Taconic Biosciences; weight at treatment start was 19 g) were inoculated subcutaneously in the flank (cell suspension) with 5.0×10^6 TMD8 cells. Tumor growth was monitored with vernier calipers. Tumor volume was calculated using the formula V=W^2×L/2, where V=volume, W=width and L=length of the tumor. When the mean tumor volume reached approximately 215 mm^3, the animals were randomized into treatment groups (n=8/group). […] Tumor growth and body weight were measured twice per week. Tumor growth inhibition and body weight change were calculated on Day 14 of treatment."}, "[3]": {"experiment": "Body weight and tolerability, TMD8 ABT-199/gemcitabine study (Example 9)", "type": "in vivo, mouse", "conditions": "alone or combined with Compound A", "experimental": "as §1, with “start was about 19 g)” for “start was 19 g)”, “reached approximately 245 mm^3, the” for “reached approximately 215 mm^3, the”, “randomized into 6 treatment groups” for “randomized into treatment groups”"}, "TMD8 DLBCL xenografts": {"test_system": "TMD8 DLBCL xenografts", "experiment": "Antitumor activity in CB17 SCID mice bearing TMD8 DLBCL xenografts, bendamustine combination (Example 3)", "type": "in vivo, mouse", "conditions": "bendamustine 1 mg/kg IV BIW, alone or combined, Day 14"}, "sensitive cell systems": {"test_system": "sensitive cell systems", "experiment": "Activity in sensitive cell systems", "type": "cell-based"}, "[4]": {"test_system": "Ly19 human lymphoma xenografts", "experiment": "Antitumor activity in SCID mice bearing Ly19 xenografts, rituximab combination (Example 14)", "type": "in vivo, mouse", "conditions": "alone or combined"}, "[5]": {"experiment": "Clinical activity in a recent study (response-evaluable subjects)", "type": "in vivo", "conditions": "3 DLBCL PR, 1 FL CR, 2 FL SD"}, "[6]": {"test_system": "OCI-Ly10 human DLBCL xenografts", "experiment": "Antitumor activity in SCID mice bearing OCI-Ly10 human DLBCL xenografts, ibrutinib or bendamustine combination (Example 5)", "type": "in vivo, mouse", "conditions": "Day 21; Compound A 60 mg/kg PO QD; ibrutinib 6 mg/kg PO QD; bendamustine 1 mg/kg IV BIW (6 doses); alone or combined with Compound A; citrate"}, "[7]": {"test_system": "WSU-Luc human lymphoma xenografts", "experiment": "Antitumor activity in SCID mice bearing WSU-Luc human lymphoma xenografts, ibrutinib combination (Example 12)", "type": "in vivo, mouse", "conditions": "Day 20, alone or combined", "experimental": "The study ended on Day 20 of dosing.\nTumor growth was monitored with vernier calipers. Tumor volume was calculated using the formula V=W^2×L/2, where V=volume, W=width and L=length of the tumor. When the mean tumor volume reached approximately 190 mm^3, the animals were randomized into treatment groups (n=8/group). […] Tumor growth and body weight were measured twice per week. Tumor growth inhibition and body weight change were calculated on Day 20 of treatment.\nStatistical analysis: The differences in the tumor growth trends over time between pairs of treatment groups were assessed using linear mixed effects regression models. These models account for the fact that each animal was measured at multiple time points. A separate model was fit for each comparison, and the areas under the curve (AUC) for each treatment group were calculated using the predicted values from the model. The percent decrease in AUC (dAUC) relative to the reference group was then calculated.\nThe change in AUC relative to the control was calculated for both single agent treatment groups as well as the combination group. […] The results can be divided into four categories: synergistic, additive, sub-additive, and antagonistic.\nFor this analysis, a T/C ratio was calculated for each animal by dividing the tumor measurement for the given animal by the mean tumor measurement across all control animals. The T/C ratios across a treatment group were compared to the T/C ratios of the control group using a two-tailed Welch's t-test."}, "[8]": {"experiment": "Body weight and tolerability, A20 study (Example 1)", "type": "in vivo, mouse", "conditions": "Compound A 60 mg/kg PO QD 21 d, anti-PD-1 10 mg/kg IP Q4D x3, alone or combined"}, "[9]": {"experiment": "Body weight and tolerability, OCI-LY10 ABT-199 study (Example 11)", "type": "in vivo, mouse", "conditions": "alone or combined", "experimental": "as §1, with “(Charles River Laboratories, about 21 g” for “(Taconic Biosciences; weight”, “start)” for “start was 19 g)”, “4.0×10^6 OCI-Ly10” for “5.0×10^6 TMD8”, “175” for “215”, “(n=5/group).” for “(n=8/group).”, “21” for “14”"}, "Ly19 xenografts": {"test_system": "Ly19 xenografts", "experiment": "Antitumor activity in SCID mice bearing Ly19 xenografts, bendamustine combination (Example 4)", "type": "in vivo, mouse", "conditions": "alone or combined"}, "[10]": {"test_system": "OCI-Ly10 human lymphoma xenografts", "experiment": "Antitumor activity in SCID mice bearing OCI-Ly10 human lymphoma xenografts, bendamustine and rituximab (Example 6)", "type": "in vivo, mouse", "conditions": "Day 21, citrate"}, "[11]": {"conditions": "Compound A 60 mg/kg PO QD, anti-PD-1 10 mg/kg IP Q4D x3, alone or combined, Day 19"}, "[12]": {"conditions": "Day 14, Compound A 60 mg/kg PO QD x14, rituximab 10 mg/kg IV QW x2"}, "[13]": {"conditions": "Compound A 60 mg/kg, ibrutinib 20 mg/kg"}, "[14]": {"conditions": "Day 14, Compound A 60 mg/kg PO QD x14, bendamustine 1.0 mg/kg IV BIW x2"}}, "note": "pEC50: −log10 of the molar value. Several values for one entry are separate records, joined by “and”; a condition that tells them apart may be missing. Equal entries are not always repeated. Structures can show the parent of a compound that is named as a salt.", "data": [{"compound": "Cn1cc(-c2nc(N[C@@H]3CCCC[C@@H]3N)c(F)c3c2C(=O)NC3)cn1", "note": "[Compound A, 6-((1R,2S)-2-aminocyclohexylamino)-7-fluoro-4-(1-methyl-1H-pyrazol-4-yl)-1H-pyrrolo[3,4-c]pyridine-3 (2H)-one citrate]", "values": [{"measurement": "Mean Tumor Volume (mm^3) ± SEM", "setting": "[1]; Compound A 60 mg/kg PO QD 21 d, anti-PD-1 10 mg/kg IP Q4D x3, alone or combined, Day 19", "value": "1,582.9 ± 317.2 mm^3"}, {"measurement": "T/C", "setting": "[1]; [11]", "value": 0.85}, {"measurement": "TGI (%)", "setting": "[1]; [11]", "value": 15.3, "unit": "%"}, {"measurement": "dAUC (percent decrease in AUC, pairwise comparison)", "setting": "[1]; reference 0.5% methylcellulose, Compound A 60 mg/kg, anti-PD-1 10 mg/kg, days >19 excluded", "value": 10.2}, {"measurement": "% BW Change (Day Maximum)", "setting": "[2]; Compound A 60 mg/kg PO QD 14 d, gemcitabine 5 mg/kg IP Q3D x4", "value": "6.4 (12) %"}, {"measurement": "Number of animals removed", "setting": "[2]; Compound A 60 mg/kg, gemcitabine 5 mg/kg", "value": 0}, {"measurement": "% BW Change (Day Maximum)", "setting": "[3]; Compound A 60 mg/kg PO QD 14 d, ABT-199 25 mg/kg PO QD 14 d, gemcitabine 5 mg/kg IP Q3D x4", "value": "7.9 (14) %"}, {"measurement": "Number of animals removed", "setting": "[3]; Compound A 60 mg/kg, ABT-199 25 mg/kg, gemcitabine 5 mg/kg", "value": 0}, {"measurement": "Mean Tumor Volume (mm^3) ± SEM", "setting": "TMD8 DLBCL xenografts; Compound A 60 mg/kg PO QD 14 d", "value": "1,085.5 ± 173.3 mm^3"}, {"measurement": "T/C", "setting": "TMD8 DLBCL xenografts; Compound A 60 mg/kg PO QD", "value": 0.61}, {"measurement": "TGI (%)", "setting": "TMD8 DLBCL xenografts; Compound A 60 mg/kg PO QD", "value": 38.5, "unit": "%"}, {"measurement": "pEC50", "setting": "sensitive cell systems", "value": "6.40 to 7.60"}, {"measurement": "Mean Tumor Volume (mm^3) ± SEM at Day 14", "setting": "[4]; [12]", "value": "1594.0 ± 115.6", "unit": "mm^3"}, {"measurement": "TGI (%)", "setting": "[4]; [12]", "value": 36.6, "unit": "%"}, {"measurement": "dAUC", "setting": "[4]; vs vehicle, Compound A 60 mg/kg, rituximab 10 mg/kg", "value": 11.5}, {"measurement": "response-evaluable subjects who responded to treatment", "setting": "[5]", "value": "6 of the 20"}, {"measurement": "TGI", "setting": "[6]", "value": 38.8, "unit": "%"}, {"measurement": "TGI (%)", "setting": "[7]; Compound A 60 mg/kg PO QD, ibrutinib 20 mg/kg PO QD", "value": 37.6, "unit": "%"}, {"measurement": "Mean Tumor Volume (mm^3) ± SEM", "setting": "[7]; [13]", "value": "680.4 ± 120.1", "unit": "mm^3"}, {"measurement": "T/C", "setting": "[7]; [13]", "value": 0.62}, {"measurement": "Number of animals removed", "setting": "[8]", "value": 1}, {"measurement": "% BW Change (Day Maximum)", "setting": "[8]; maximum change within treatment period, citrate", "value": "15.8% and 15.8 (19) %"}, {"measurement": "% BW Change (Day Maximum)", "setting": "[9]; Compound A 60 mg/kg PO QD 21 d, ABT-199 12.5 mg/kg PO QD 21 d", "value": "−0.0 (3) %"}, {"measurement": "Number of animals removed", "setting": "[9]; Compound A 60 mg/kg, ABT-199 12.5 mg/kg", "value": 0}, {"measurement": "Mean Tumor Volume (mm^3) ± SEM at Day 14", "setting": "Ly19 xenografts; [14]", "value": "1683.9 ± 167.1", "unit": "mm^3"}, {"measurement": "TGI (%)", "setting": "Ly19 xenografts; [14]", "value": 32.6, "unit": "%"}, {"measurement": "dAUC", "setting": "Ly19 xenografts; vs vehicle, Compound A 60 mg/kg, bendamustine 1.0 mg/kg", "value": 18.8}, {"measurement": "TGI", "setting": "[10]; Compound A 30 mg/kg PO QD x21, bendamustine 1 mg/kg IV BIW, rituximab 1 mg/kg IV QW x3, alone or combined", "value": 24.2, "unit": "%"}, {"measurement": "TGI", "setting": "[10]; Compound A 60 mg/kg PO QD x21, 60 mg/kg", "value": 51.1, "unit": "%"}]}]}
